Data reported in PubChem BioAssay AID192 (DTP/NCI, 2004).
Several values for one entry are separate records, joined by “and”; a condition that tells them apart may be missing. Identical values can stand only once. Inconclusive results and toxic doses are left out. Numbered stars: 1 amine (or outer) side, 2 acyl side, 3 side chain; on linkers, the order of the positions; unused ones are H or OH. Bridge positions count the residues as written; N and C are the ends. Square brackets hold non-standard residues; d marks the D form. Peptide text beside a SMILES is read from it. I, II: the chains in the order shown. Actinocin(9to1) = Cc1c2oc3c(C)ccc(C(=O)[*:1])c3nc-2c(C(=O)[*:2])c(N)c1=O; NMeV = CN[CH](C(=O)O)C(C)C; Sar = CNCC(=O)O

System: BDF1 mice, B16 melanoma ip, median survival T/C
Assay: NCI In Vivo Anticancer Drug Screen. Data for tumor model B16 Melanoma (intraperitoneal) in B6D2F1 (BDF1) mice
Details: endpoint: median survival time, higher = longer survival
How it was run: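 Survival or tumor size is measured after treatment of tumor-bearing mice and normalised to the vehicle-treated control group.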

[1] = dose: 50.0 mg/kg/injection, schedule: Q01DX009 (ip), vehicle: other
[2] = dose: 100.0 mg/kg/injection, schedule: Q01DX009 (ip), vehicle: other
[3] = dose: 200.0 mg/kg/injection, schedule: Q01DX009 (ip), vehicle: other

CCCCCCCC(=O)CCCCC
T/C [1]: 90 % of control
T/C [2]: 94 % of control
T/C [3]: 100 % of control

Cc1c2oc3c(C)ccc(C(=O)NC4C(=O)NC(C(C)C)C(=O)N(C)CC(=O)N(C)CC(=O)N(C)C(C(C)C)C(=O)OC4C)c3nc-2c(C(=O)NC2C(=O)NC(C(C)C)C(=O)N(C)CC(=O)N(C)CC(=O)N(C)C(C(C)C)C(=O)OC2C)c(N)c1=O (centres undefined) (I: TV[Sar][Sar][NMeV] / II: TV[Sar][Sar][NMeV]; ester I:1-I:C, II:1-II:C; linker I:N-II:N via Actinocin(9to1); configuration not given here)
T/C (dose: 0.71 mg/kg/injection, schedule: Q01DX009 (ip), vehicle: water): 161 % of control
T/C (dose: 1.07 mg/kg/injection, schedule: Q01DX009 (ip), vehicle: water): 161 % of control
T/C (dose: 125.0 micrograms/kg/injection, schedule: Q01DX009 (ip), vehicle: saline + alcohol): 112 % of control
T/C (dose: 375.0 micrograms/kg/injection, schedule: Q04DX003 (ip), vehicle: saline + alcohol): 117 % of control and 123 % of control
T/C (dose: 1500.0 micrograms/kg/injection, schedule: Q04DX003 (ip), vehicle: saline + alcohol): 162 % of control
T/C (dose: 3000.0 micrograms/kg/injection, schedule: Q04DX003 (ip), vehicle: saline + alcohol): 159 % of control

CC(=O)CC(C)=O.CC(=O)CC(C)=O.CC(=O)CC(C)=O.[V]
T/C (dose: 3.13 mg/kg/injection, schedule: Q01DX009 (ip), vehicle: saline): 88 % of control
T/C (dose: 6.25 mg/kg/injection, schedule: Q01DX009 (ip), vehicle: saline): 89 % of control

Cc1ccc(S(=O)(=O)N/N=C/c2ccccc2)cc1
T/C [1]: 104 % of control
T/C [2]: 110 % of control
T/C [3]: 103 % of control
T/C (dose: 400.0 mg/kg/injection, schedule: Q01DX009 (ip), vehicle: other): 106 % of control

CCCCCCCCCCCCNC(=O)Nc1ccc(CC)cc1
T/C (dose: 100.0 mg/kg/injection, schedule: Q01DX009 (ip), vehicle: Klucel (hydroxypropylcellulose) (HPC)): 92 % of control
T/C (dose: 200.0 mg/kg/injection, schedule: Q01DX009 (ip), vehicle: Klucel (hydroxypropylcellulose) (HPC)): 100 % of control
T/C (dose: 400.0 mg/kg/injection, schedule: Q01DX009 (ip), vehicle: Klucel (hydroxypropylcellulose) (HPC)): 100 % of control

CCCCC(CCC)(CCN)CCCC
T/C (dose: 1.0 mg/kg/injection, schedule: Q01DX009 (ip), vehicle: saline sonified): 102 % of control
T/C (dose: 2.0 mg/kg/injection, schedule: Q01DX009 (ip), vehicle: saline sonified): 97 % of control
T/C (dose: 4.0 mg/kg/injection, schedule: Q01DX009 (ip), vehicle: saline sonified): 100 % of control

Cc1cccc(NC(=O)COc2ccc(Cl)cc2)c1C
T/C (dose: 25.0 mg/kg/injection, schedule: Q01DX009 (ip), vehicle: saline): 98 % of control
T/C (dose: 50.0 mg/kg/injection, schedule: Q01DX009 (ip), vehicle: saline): 100 % of control
T/C (dose: 100.0 mg/kg/injection, schedule: Q01DX009 (ip), vehicle: saline with Tween-80): 98 % of control
T/C (dose: 100.0 mg/kg/injection, schedule: Q01DX009 (ip), vehicle: saline): 105 % of control

C1CN1P1(N2CC2)=NP(N2CC2)(N2CC2)=NP(N2CC2)(N2CC2)=NP(N2CC2)(N2CC2)=N1
T/C (dose: 1.0 mg/kg/injection, schedule: Q01DX009 (ip), vehicle: saline): 105 % of control
T/C (dose: 1.0 mg/kg/injection, schedule: Q02DX009 (ip), vehicle: saline): 88 % of control
T/C (dose: 2.0 mg/kg/injection, schedule: Q01DX009 (ip), vehicle: saline): 116 % of control
T/C (dose: 2.0 mg/kg/injection, schedule: Q02DX009 (ip), vehicle: saline): 95 % of control and 105 % of control
T/C (dose: 4.0 mg/kg/injection, schedule: Q01DX009 (ip), vehicle: saline): 120 % of control
T/C (dose: 4.0 mg/kg/injection, schedule: Q02DX009 (ip), vehicle: saline): 87 % of control and 90 % of control
T/C (dose: 8.0 mg/kg/injection, schedule: Q01DX009 (ip), vehicle: saline): 108 % of control
T/C (dose: 8.0 mg/kg/injection, schedule: Q02DX009 (ip), vehicle: saline): 100 % of control
T/C (dose: 16.0 mg/kg/injection, schedule: Q01DX009 (ip), vehicle: saline): 93 % of control
T/C (dose: 16.0 mg/kg/injection, schedule: Q02DX009 (ip), vehicle: saline): 98 % of control and 100 % of control
T/C (dose: 32.0 mg/kg/injection, schedule: Q01DX009 (ip), vehicle: saline): 97 % of control
T/C (dose: 32.0 mg/kg/injection, schedule: Q02DX009 (ip), vehicle: saline): 87 % of control and 100 % of control
T/C (dose: 64.0 mg/kg/injection, schedule: Q01DX009 (ip), vehicle: saline): 108 % of control
T/C (dose: 64.0 mg/kg/injection, schedule: Q02DX009 (ip), vehicle: saline): 87 % of control and 94 % of control
